Test results reported in PMC2702710 (The Journal of organic chemistry, 2009).
pIC50: −log10 of the molar value. Each block holds one compound with its values, some of them ahead of it.

Assays:
[1] = target: T1, Icmt (Homo sapiens, UniProt O60725); assay: Vapor diffusion assay; assay type: biochemical; conditions: for pIC50: read-out: Human Icmt IC50, 25 μM AFC, 20 μM 14C-SAM, 30 min at 30°C
[2] = target: T1, Icmt; assay: Icmt scintillation proximity assay; assay type: biochemical; conditions: initial SPA screen, 50 μM
[3] = target: T1, Icmt; assay: Preliminary screen for Icmt substrate activity; assay type: biochemical
[4] = tested on: cancer cells; conditions: cited from earlier work

T1 sequence (O60725 whole entry, the tested form may be a part): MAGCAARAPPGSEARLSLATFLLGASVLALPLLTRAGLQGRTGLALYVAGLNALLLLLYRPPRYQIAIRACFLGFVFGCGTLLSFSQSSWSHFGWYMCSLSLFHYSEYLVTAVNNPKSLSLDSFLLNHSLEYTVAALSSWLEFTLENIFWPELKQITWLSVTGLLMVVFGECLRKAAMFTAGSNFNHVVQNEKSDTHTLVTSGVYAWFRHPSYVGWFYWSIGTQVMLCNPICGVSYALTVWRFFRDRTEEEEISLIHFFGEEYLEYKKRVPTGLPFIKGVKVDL

Compound: CC(C)=CCC/C(C)=C/CC/C(C)=C/CSC[C@H](NC(=O)C12CC3CC(CC1C3)C2)C(=O)O [4b, N-3-noradamantanecarbonyl-L-cysteine[S-(2E,6E)-3,7,11-trimethyldodeca-2,6,10-trienyl]-OH]
pIC50 ([1]; VDA): 4.78

Compound: CC(C)=CCC/C(C)=C/CC/C(C)=C/CSC[C@H](NC(=O)C[C@H]1C[C@H]2CCC1C2)C(=O)O [4c, N-2-((2R,4S)-bicyclo[2.2.1]heptan-2-yl)acetyl-L-cysteine[S-(2E,6E)-3,7,11-trimethyldodeca-2,6,10-trienyl]-OH]
activity in the SPA [2]: inactive

Compound: CC(C)=CCC/C(C)=C/CC/C(C)=C/CSC[C@H](NC(=O)Cc1cccc2ccccc12)C(=O)O [4g, N-1-napthylacetylcarbonyl-L-cysteine[S-(2E,6E)-3,7,11-trimethyldodeca-2,6,10-trienyl]-OH]
activity in the SPA [2]: inactive

Compound: CC(C)=CCC/C(C)=C/CC/C(C)=C/CSC[C@H](NC(=O)CO[C@@H]1C[C@H](C)CC[C@H]1C(C)C)C(=O)O [4h, N-2-((1R,2S,5R)-2-isopropyl-5-methylcyclohexyloxy)acetyl-L-cysteine[S-(2E,6E)-3,7,11-trimethyldodeca-2,6,10-trienyl]-OH]
pIC50 ([1]; VDA): 4.64

Compound: CC(C)=CCC/C(C)=C/CC/C(C)=C/CSC[C@H](NC(=O)CN1C(=O)OC[C@@H]1c1ccccc1)C(=O)O [5f, N-2-((S)-4-phenyl-2-oxo-oxazolidin-3-yl)acetyl-L-cysteine[S-(2E,6E)-3,7,11-trimethyldodeca-2,6,10-trienyl]-OH]
Icmt substrate activity [3]: more efficient Icmt substrates than the prototypical N-acetylfarnesylcysteine

Compound: CC(C)=CCC/C(C)=C/CC/C(C)=C/CSC[C@H](NC(=O)CCS(=O)(=O)c1ccccc1)C(=O)O [5l, N-3-(phenylsulfonyl)propanoyl-L-cysteine[S-(2E,6E)-3,7,11-trimethyldodeca-2,6,10-trienyl]-OH]
Icmt substrate activity [3]: more efficient Icmt substrates than the prototypical N-acetylfarnesylcysteine

Compound: CC(C)=CCC(=CCSC[C@H](NC(=O)c1ccccc1Oc1ccccc1)C(=O)O)CCc1ccc(-c2ccccc2)cc1 [compound 7, N-2-Phenoxybenzoyl-S-3-(3-methyl-but-2-enyl)-5-(4-biphenyl)pent-2-enyl-L-cysteine]
Icmt substrate activity [3]: no substrate activity

Compound: CCCCCCCCn1cc(CC(N)=O)c2cc(-c3cccc(C)c3)ccc21 [cysmethynil]
activity against cancer cells [4]: exhibits activity against cancer cells

The next lines start with the values.

pIC50 ([1]; VDA): 4.73
Compound: CC(C)=CCC/C(C)=C/CC/C(C)=C/CSC[C@H](NC(=O)CC12CC3CC(CC(C3)C1)C2)C(=O)O [4a, N-1-adamantylacetylcarbonyl-L-cysteine[S-(2E,6E)-3,7,11-trimethyldodeca-2,6,10-trienyl]-OH]

pIC50 ([1]; VDA): 4.78
Compound: CCCCCC12CCC(C(=O)N[C@@H](CSC/C=C(\C)CC/C=C(\C)CCC=C(C)C)C(=O)O)(CC1)CC2 [4d, N-4-pentylbicyclo[2.2.2]octane-1-carbonyl-L-cysteine[S-(2E,6E)-3,7,11-trimethyldodeca-2,6,10-trienyl]-OH]

pIC50 ([1]; VDA): 4.81
Compound: CC(C)=CCC/C(C)=C/CC/C(C)=C/CSC[C@H](NC(=O)[C@]12CCC(CC1=O)C2(C)C)C(=O)O [4e, N-(1S)-7,7-dimethyl-2-oxobicyclo[2.2.1]heptane-1-carbonyl-L-cysteine[S-(2E,6E)-3,7,11-trimethyldodeca-2,6,10-trienyl]-OH]

pIC50 ([1]; VDA): 4.92
Compound: CC(C)=CCC/C(C)=C/CC/C(C)=C/CSC[C@H](NC(=O)c1ccccc1-c1ccccc1)C(=O)O [4f, N-2-phenylbenzoyl-L-cysteine[S-(2E,6E)-3,7,11-trimethyldodeca-2,6,10-trienyl]-OH]

activity in the SPA [2]: inactive
Compound: CCCCCCCCC(=O)N[C@@H](CSC/C=C(\C)CC/C=C(\C)CCC=C(C)C)C(=O)O [4i, N-octylcarbonyl-L-cysteine[S-(2E,6E)-3,7,11-trimethyldodeca-2,6,10-trienyl]-OH]

inhibition of Icmt (methylation of AFC) ([1]; VDA, at a concentration of 10 μM): ~80%
pIC50 ([1]; VDA): 5.37
Compound: CC(C)=CCC/C(C)=C/CC/C(C)=C/CSC[C@H](NC(=O)c1ccccc1Oc1ccccc1)C(=O)O [5e, N-(2-oxyphenyl)benzoyl-L-cysteine[S-(2E,6E)-3,7,11-trimethyldodeca-2,6,10-trienyl]-OH]

Icmt inhibitory potency (in words) [1]: potent analog
Compound: N-2-(aminophenyl)benzoyl-L-cysteine[S-(2E,6E)-3,7,11-trimethyldodeca-2,6,10-trienyl]-OH [5h]
